# Test results published in PubChem BioAssay (NCI).
# Several values for one entry are separate records, joined by “and”; a condition that tells them apart may be missing. Identical values can stand only once.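 1) Cells in 96-well plates. 2) Compound, 48 h, 5 concentrations. 3) Linear interpolation between surrounding doses. 4) Unreached endpoint = highest concentration. GI50 = concentration required for 50% inhibition of growth. TGI is the concentration that stops growth completely.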
# Legend:
# Assay in all cases: growth of human tumour cells (NCI), 48 h
# COLO 205 colon = tested on: COLO 205 colon
# HCT-15 colon = tested on: HCT-15 colon
# HL-60(TB) leukemia = tested on: HL-60(TB) leukemia
# HT29 colon = tested on: HT29 colon
# OVCAR-4 ovarian = tested on: OVCAR-4 ovarian
# RXF 393 renal = tested on: RXF 393 renal
# SK-MEL-5 melanoma = tested on: SK-MEL-5 melanoma
# SK-OV-3 ovarian = tested on: SK-OV-3 ovarian
# DU-145 prostate = tested on: DU-145 prostate
# SR leukemia = tested on: SR leukemia
SMILES,TGI (COLO 205 colon) [µM],TGI (HCT-15 colon) [µM],TGI (HL-60(TB) leukemia) [µM],TGI (HT29 colon) [µM],TGI (OVCAR-4 ovarian) [µM],TGI (RXF 393 renal) [µM],TGI (SK-MEL-5 melanoma) [µM],TGI (SK-OV-3 ovarian),TGI (DU-145 prostate) [µM],TGI (SR leukemia) [µM],GI50 (COLO 205 colon) [µM],GI50 (DU-145 prostate) [µM],GI50 (HCT-15 colon) [µM],GI50 (HL-60(TB) leukemia) [µM],GI50 (HT29 colon) [µM],GI50 (OVCAR-4 ovarian) [µM],GI50 (RXF 393 renal) [µM],GI50 (SK-MEL-5 melanoma) [µM],GI50 (SK-OV-3 ovarian) [µM],GI50 (SR leukemia) [µM]
O=c1c(-c2ccccc2)c2oc(c1-c1ccccc1)CSCc1cccc(c1)CSC2,> 100,> 100,> 100,> 100,> 100,50.7,> 100,70.1 µM,–,–,–,–,–,–,–,–,–,–,–,–
CC1=C2C(=C[C@@](C)(CO)[C@@H]2O)C(=O)[C@](C)(O)C12CC2,0.0218,0.0344,0.0327,0.0286,0.0267,0.018,0.0183,0.0302 µM and 0.0394 µM,0.0597,–,–,–,–,–,–,–,–,–,–,–
COC(=O)C(CCCN1C(=O)c2ccccc2C1=O)C(=O)OC,> 100,> 100,> 100,> 100,> 100,> 100,> 100,> 100 µM,–,–,–,–,–,–,–,–,–,–,–,–
C#CCn1c(=O)c2ccccc2n(CC#C)c1=O,> 10,> 10,–,> 10,> 10,> 10,> 10,> 10 µM,> 10,–,–,–,–,–,–,–,–,–,–,–
CCCCCC[C@@H]1CCC2C(CO)[C@@H](O)CC[C@@H]2C1 (stereo partly specified),35.1,33.4,–,34.1,30.6,–,34.2,–,–,53.6,–,–,–,–,–,–,–,–,–,–
CCCOc1cc2ccccc2cc1C(=O)Nc1nc(N)c2c(ccc3nccc32)[nH]1,0.481,1.31,0.229,0.129,4.37,1.16,1.04,2.36 µM,1.45,–,0.0445,0.0487,0.0444,0.0307,0.0341,1.55,0.0426,0.0413,0.0591,–
COc1ccc(C2[C@@H](c3ccccc3)C(=O)N2c2cc(OC)c(OC)c(OC)c2)cc1F (stereo partly specified),–,> 100,0.0542,0.0781,> 100,–,0.075,> 100 µM,> 100,> 100,–,0.0354,0.0336,0.0223,0.026,0.0871,–,0.0271,0.0348,0.0373
C=C1C(=O)O[C@H]2[C@H]1CC/C(COC(=O)NCc1ccc(Cn3c(=O)sn(-c4ccc(OC)cc4)c3=O)cc1)=C\CC[C@@]1(C)O[C@@H]21,3.38,3.36,5.48,3.51,3.98,–,24.8,27.4 µM,3.21,5.2,1.85,1.81,1.68,2.12,1.96,1.64,–,12,14.4,0.535
O=C(/C=C/c1ccc([N+](=O)[O-])cc1)c1ccc(NCc2nc3ccccc3[nH]2)cc1,7.71,11.8,4.25,12.3,27.8,–,16.3,30.1 µM,–,8.15,–,–,–,–,–,–,–,–,–,–
C=CC[C@H](C[C@H](C[C@H](C[C@H](C[C@H](C[C@H](C[C@H](C[C@H](C[C@H](C[C@H](CCCCC)OC)OC)OC)OC)OC)OC)OC)OC)OC)OC,> 100,–,> 100,> 100,> 100,> 100,> 100,> 100 µM,–,> 100,–,–,–,–,–,–,–,–,–,–
Oc1[nH]c2ccccc2c1N=Nc1nc(-c2ccc(Br)cc2)cs1,79.1,68.3,–,32.9,38.9,> 100,33.4,66.3 µM,68,–,–,–,–,–,–,–,–,–,–,–
CC(=O)O/N=C(/C)c1ccccc1O,> 100,–,> 100,> 100,> 100,> 100,–,> 100 µM,–,–,–,–,–,–,–,–,–,–,–,–
CCCCN(CCCC)C(=O)C(=O)C(C(=O)c1ccc(OC)cc1)c1ccc(OC)cc1 (stereo unspecified),> 100,> 100,> 100,> 100,> 100,> 100,> 100,> 100 µM,–,–,–,–,–,–,–,–,–,–,–,–
CCc1c(OC(C)=O)c2c(NC3OCC(OC(C)=O)C(OC(C)=O)C3OC(C)=O)nc(SC)nc2oc1=O (stereo unspecified),> 100,> 100,> 100,> 100,> 100,> 100,> 100,> 100 µM,–,–,–,–,–,–,–,–,–,–,–,–
COc1ccc(OC)c(N2CC(N)C2=O)c1 (stereo unspecified),> 100,> 100,> 100,> 100,> 100,> 100,> 100,> 100 µM,–,–,–,–,–,–,–,–,–,–,–,–
O=C(Oc1ccc(Cl)cc1)c1ccccc1Nc1ccnc(C(F)(F)F)c1,–,5.13,> 100,–,–,–,36.2,–,39.8,> 100,–,18.7,2.07,6.48,–,–,–,16.8,–,3.79
Cc1ccc(/C=C/C(=O)c2cccc3ccccc23)cc1,56.4,35.3,28.3,43.4,28,26.2,–,62.5 µM,–,78.2,–,–,–,–,–,–,–,–,–,–
Cc1cccc(C)c1NC(=O)CCCC(=O)C1/C(=N/NC(=O)CC#N)CCC/C1=N\NC(=O)CC#N (stereo unspecified),> 100,> 100,> 100,> 100,> 100,–,> 100,> 100 µM,–,> 100,–,–,–,–,–,–,–,–,–,–
O=C1C=CC(=O)c2nc3c(cc21)CCC3,27.7,–,–,> 100,29.7,34.2,45.9,–,–,27,–,–,–,–,–,–,–,–,–,–
CCCCCCCCCCCCC(O)c1ccc(C#CCCCCCCCCCO)o1 (stereo unspecified),> 100,36.8,–,> 100,> 100,35.3,47.2,62.2 µM,33,–,> 100,18.8,18.2,–,69.9,45.1,17.9,25.5,25.8,–
COC(=O)CC(c1ccccc1)C1(c2ccccc2)SCCS1 (stereo unspecified),> 290,> 290,> 290,> 290,–,> 290,> 290,> 290 µM,–,> 290,–,–,–,–,–,–,–,–,–,–
